Two compounds from patent publication US6730699B2, “Water soluble paclitaxel derivatives” (priority 2001, dated 2004) can be followed below.

Where two headings read alike, the source gives them in different places. Where only a bound is given, the exact number is not on record here.

The test system of data set [1] is SKOV3ipl human ovarian cancer cell line. As to the kind of experiment: Human ovarian cancer i.p. in nude mice.
Data set [2] is described as follows: Acute toxicity in 13762F tumor-bearing Fischer rats.
Data set [3] deals with rat mammary tumor cell line 13762F. As to the kind of experiment: Plating efficiency assay, 13762F cells. The data set is classed as cell-based. As to conditions: 144 h, read-out: IC50 (50% inhibition of colony formation), 6 days of continuous exposure, approximate.
Another data set in a line: in vivo. As to conditions: female, C3Hf/Kam, mouse, iv.
The mark [4] stands for this setting: 47 mg eq./kg + 14 Gy 24 h after PG-TXL.
Where [5] appears, read: 80 mg eq./kg + 14 Gy 24 h after PG-TXL.
[6] abbreviates: 120 mg eq/kg + 14 Gy 24 h after PG-TXL.
Setting [7] is: 120 mg eq/kg + 14 Gy 24 h prior to PG-TXL.

For Poly-Glutamic Acid-Paclitaxel [PG-TXL], the “Ascites (incidence/mice with tumor)” value in data set [1] (120 mg/kg, three injections) is listed as 3/7; in data set [1] (160 mg/kg, single dose), 0/3. In addition, the “Mean vol of ascites (s.d.)” value in data set [1] (120 mg/kg, three injections) amounted to 2.7 ± 1.4 mL. The “Tumor take (incidence of tumor/mice injected)” value in data set [1] (120 mg/kg, three injections) is on record as 7/8. In addition, the “mice killed by a single injection” value in data set [1] (160 mg/kg i.v., nude mice) is listed as 5 of the 10. Also, the “Absolute growth delay” value in the data set on ovarian OCa-l carcinoma (setting [4]) was determined as 18.2 days; in the data set on ovarian OCa-l carcinoma (47 mg eq./kg, no radiation) it was 2.7 days; in the data set on ovarian OCa-l carcinoma (setting [5]) it was 45.6 days; in the data set with ovarian OCa-l carcinoma (80 mg eq./kg, no radiation), 8.1 days; with ovarian OCa-l carcinoma (setting [6]) it was 98.4 days; in the data set with ovarian OCa-l carcinoma (setting [7]) it was 100.5 days. In addition, the “Absolute growth delay” value in the data set on ovarian OCa-l carcinoma (120 mg eq/kg, no radiation) came out at 12.5 days. The “Days for tumor to grow from 8-14 mm (means ± SD)” value turned out to be 35.3 ± 4.7 days in the data set with ovarian OCa-l carcinoma (setting [4]); 19.8 ± 0.98 days in the data set with ovarian OCa-l carcinoma (47 mg eq./kg, no radiation); 62 ± 4.6 days with ovarian OCa-l carcinoma (setting [5]); 25.3 ± 3.9 days with ovarian OCa-l carcinoma (80 mg eq./kg, no radiation); 115 ± 3 days in the data set on ovarian OCa-l carcinoma (120 mg eq/kg + 14 Gy 24 h after PG-TXL, regrown tumors only); 117 ± 1.2 days with ovarian OCa-l carcinoma (120 mg eq/kg + 14 Gy 24 h prior to PG-TXL, regrown tumors only). Further, the “Days for tumor to grow from 8-14 mm (means ± SD)” value in the data set with ovarian OCa-l carcinoma (120 mg eq/kg, no radiation) is on record as 29.7 ± 3.2 days. The “Normalized growth delay (means ± SD)” value with ovarian OCa-l carcinoma (setting [4]) came to 15.5 ± 4.7 days; with ovarian OCa-l carcinoma (setting [5]) it was 37.5 ± 4.6 days; in the data set on ovarian OCa-l carcinoma (setting [6]), 85.9 ± 3.0 days; with ovarian OCa-l carcinoma (setting [7]), 88 ± 1.2 days. In addition, the “Body Weight Loss in %” value in data set [2] (40 mg/kg single i.v.) is recorded as 11.1%; in data set [2] (60 mg/kg single i.v.), 15.7%. In addition, the “Time at Nadir” value is 6 days in data set [2] (40 mg/kg single i.v.) and 7 days in data set [2] (60 mg/kg single i.v.). Further, the “Time of Full Recovery” value in data set [2] (40 mg/kg single i.v.) is on record as 11 days; in data set [2] (60 mg/kg single i.v.), 14 days.

Broadly, the IC50 is the concentration that gives 50% inhibition. For the compound `CC(=O)O[C@H]1C(=O)[C@@]2(C)[C@H]([C@H](OC(=O)c3ccccc3)[C@]3(O)C[C@H](OC(=O)[C@H](O)[C@@H](NC(=O)c4ccccc4)c4ccccc4)C(C)=C1C3(C)C)[C@]1(OC(C)=O)CO[C@@H]1C[C@@H]2O` [Paclitaxel, paclitaxel], the IC50 in data set [3] is approximately 2 nM. In addition, the MTD at 2 wk in the data set “in vivo” stood at 80 mg/kg. In addition, in data set [2] (20 mg/kg single i.v.), the “# of Toxic Death” value is reported as 0/5, the “Body Weight Loss in %” value was found to be 17.0% and the “Time at Nadir” value turned out to be 5 days. In data set [2] (40 mg/kg single i.v.), the “# of Toxic Death” value was 0/3, the “Body Weight Loss in %” value turned out to be 17.9%, the “Time at Nadir” value is on record as 6 days and the “Time of Full Recovery” value stood at 16 days. Besides, in data set [2] (60 mg/kg single i.v.), the “# of Toxic Death” value is recorded as 1/4, the “Body Weight Loss in %” value is recorded as 16.7%, the “Time at Nadir” value was 6 days and the “Time of Full Recovery” value was 15 days. Moreover, the MTD at 2 wk in data set [2] (female, Fischer 344, rat, in vivo) was less than 20 mg/kg.
